Measurements taken from article PMC2361651 (British Journal of Cancer, 2005).
“And” between values parts separate entries of the source, which are not always exact repeats. Identical values can stand only once. Like-named read-outs stand apart in the source and are kept apart here.

Assay: Plasma pharmacokinetics of SU5416 and metabolites in Phase I patients (HPLC UV)
Type: in vivo, human
Settings: twice weekly i.v. infusion; for clearance: read-out: CL (observed) (converted); for half-life: read-out: T1/2λz (converted); for Vd: read-out: Vz (observed)
Description: Samples were taken prior to treatment infusion, 15 min into the infusion, at completion of the infusion and then at 5, 10, 20, 30, 45, 60, 120 and 240 min following the infusion. […] At the designated times, 4.0 ml of blood were collected into a lithium heparin tube, gently inverted and placed on ice to maintain the sample at 2–8°C. All samples were immediately centrifuged at 6000 r.p.m. at 4°C for 10 min, the supernatant divided between two 1.5 ml Nalgene cryovials and snap frozen in liquid nitrogen. Separated plasma samples were subsequently stored at −70°C until analysis.
Pharmacokinetic analysis was performed using a fully validated HPLC UV method ([Stopeck et al, 2002]). Plasma samples, standards (25–2000 ng ml^−1) and quality controls spiked with internal standards were extracted with acetonitrile. Following centrifugation, drying and reconstitution in 200 μl mobile phase, 20 μl were analysed by HPLC UV. Chromatography was carried out using a C18 analytical column, with a gradient mobile phase containing acetonitrile and 10 mM ammonium formate at pH 2.6. The flow rate was 0.8 ml min^−1 and the run-time 21 min. Detection was via UV absorption at a wavelength of 440 nm. The accuracy of the assay, reflected in relative error of measured concentration to theoretical (prepared) concentrations, was between 0.9 and 5.6% for all quality control samples.
Pharmacokinetic parameters were evaluated using WinNonLin Software®.

[1] = human, plasma, iv, 85 mg m^−2, individual patients, dose 85 mg m^−2, cycle 1inj8
[2] = human, plasma, iv, 85 mg m^−2, individual patients, dose 85 mg m^−2, cycle 2inj8
[3] = human, plasma, iv, 110 mg m^−2, individual patients, dose 110 mg m^−2, cycle 1inj2
[4] = human, plasma, iv, 110 mg m^−2, individual patients, dose 110 mg m^−2, cycle 1inj8
[5] = individual patients, dose 48 mg m^−2, cycle 1inj2
[6] = individual patients, dose 48 mg m^−2, cycle 1inj8
[7] = individual patients, dose 65 mg m^−2, cycle 1inj2
[8] = individual patients, dose 65 mg m^−2, cycle 1inj8
[9] = individual patients, dose 85 mg m^−2, cycle 1inj2
[10] = individual patients, dose 85 mg m^−2, cycle 1inj8
[11] = individual patients, dose 110 mg m^−2, cycle 1inj2
[12] = individual patients, dose 145 mg m^−2, cycle 1inj2
[13] = individual patients, dose 145 mg m^−2, cycle 1inj8
[14] = individual patients, dose 145 → 190 mg m^−2, cycle 1inj2
[15] = individual patients, dose 145 → 190 mg m^−2, cycle 1inj8

Cc1cc(C)c(/C=C2\C(=O)Nc3ccccc32)[nH]1 [SU5416, Z-3-[(2,4-dimethylpyrrol-5-yl)methylidenyl]-2-indolinone]
AUC(0-t) [1]: 2380 ng·h/mL | clearance [1]: 1000 mL/min | AUC(0-t) [2]: 1620 ng·h/mL | clearance [2]: 1470 mL/min | Cmax (human, plasma, iv, 85 mg m^−2, individual patients, dose 85 mg m^−2, cycle 2inj8, read-out: Cmax): 2800 ng/mL | half-life [2]: 44.4 min | Vd [2]: 94 L | AUC(0-t) [3]: 4020 ng·h/mL | clearance [3]: 767 mL/min | Cmax (human, plasma, iv, 110 mg m^−2, individual patients, dose 110 mg m^−2, cycle 1inj2, read-out: Cmax): 3510 ng/mL | half-life [3]: 37.2 min | Vd [3]: 41 L | AUC(0-t) [4]: 3800 ng·h/mL | clearance [4]: 1400 mL/min | Cmax (human, plasma, iv, 110 mg m^−2, individual patients, dose 110 mg m^−2, cycle 1inj8, read-out: Cmax): 3580 ng/mL | half-life [4]: 37.2 min | Vd [4]: 75 L | AUClast [5]: 463 ng·h/mL and 848 ng·h/mL and 1143 ng·h/mL | CL (observed) [5]: 181 L/h and 94 L/h and 83 L/h | Cmax [5]: 2724 ng/mL and 2253 ng/mL | T1/2λz [5]: 30.6 min and 36.6 min | Vz (observed) [5]: 72 L | CL (observed) [6]: 115 L/h | Cmax [6]: 1289 ng/mL | T1/2λz [6]: 25.2 min | AUClast [7]: 2510 ng·h/mL | CL (observed) [7]: 74 L/h | Cmax [7]: 2968 ng/mL | T1/2λz [7]: 49.2 min | Vz (observed) [7]: 88 L | AUClast [8]: 2068 ng·h/mL | CL (observed) [8]: 89 L/h | Cmax [8]: 2914 ng/mL | T1/2λz [8]: 39 min | Vz (observed) [8]: 84 L | AUClast [9]: 1151 ng·h/mL and 2094 ng·h/mL | CL (observed) [9]: 133 L/h and 102 L/h | Cmax [9]: 1624 ng/mL and 2057 ng/mL | T1/2λz [9]: 42.6 min | Vz (observed) [9]: 45 L and 136 L and 104 L | AUClast [10]: 1250 ng·h/mL | Cmax [10]: 3672 ng/mL and 1354 ng/mL | T1/2λz [10]: 36 min and 123 min | Vz (observed) [10]: 52 L and 447 L | AUClast [11]: 2345 ng·h/mL and 3842 ng·h/mL | CL (observed) [11]: 70 L/h and 83 L/h | Cmax [11]: 2750 ng/mL and 3237 ng/mL | T1/2λz [11]: 41.4 min and 33 min | Vz (observed) [11]: 70 L and 66 L | AUClast [12]: 4946 ng·h/mL and 3471 ng·h/mL and 2021 ng·h/mL | CL (observed) [12]: 55 L/h and 92 L/h and 150 L/h | Cmax [12]: 4851 ng/mL and 2869 ng/mL and 1217 ng/mL | T1/2λz [12]: 53.4 min and 42.6 min | Vz (observed) [12]: 119 L and 153 L | AUClast [13]: 2349 ng·h/mL | CL (observed) [13]: 62 L/h and 169 L/h | Cmax [13]: 2080 ng/mL | T1/2λz [13]: 40.2 min | Vz (observed) [13]: 51 L and 164 L | AUClast [14]: 3389 ng·h/mL and 1928 ng·h/mL and 3683 ng·h/mL and 3397 ng·h/mL and 2621 ng·h/mL and 2870 ng·h/mL and 2465 ng·h/mL and 1267 ng·h/mL and 4094 ng·h/mL and 1578 ng·h/mL | Cmax [14]: 4159 ng/mL and 2474 ng/mL and 2961 ng/mL and 2774 ng/mL and 2894 ng/mL and 2795 ng/mL and 3202 ng/mL and 1177 ng/mL and 4508 ng/mL and 2625 ng/mL | T1/2λz [14]: 40.8 min and 30 min and 47.4 min and 39.6 min and 81.6 min and 40.2 min and 69 min and 22.8 min and 29.4 min and 41.4 min | Vz (observed) [14]: 63 L and 70 L and 85 L and 196 L and 97 L and 119 L and 118 L and 39 L and 106 L | Cmax [15]: 3370 ng/mL and 2274 ng/mL and 2066 ng/mL and 2161 ng/mL and 493 ng/mL and 4283 ng/mL | Vz (observed) [15]: 57 L and 74 L and 176 L and 488 L and 214 L and 46 L
